Reference: patent publication US20100267561A1, “HERBICIDAL PYRIDAZINONE DERIVATIVES” (priority 2007, published 2010)

Assays:
Assay type in all cases: in vivo
[1] = tested on: giant foxtail (Setaria faberi); assay: Test A pre-/postemergence plant response
In short: (§1)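 Scores reflect visual plant injury relative to untreated controls on a 0–100 scale, recorded approximately 10 days after simultaneous preemergence soil spraying and postemergence spraying of one- to two-leaf seedlings grown in loam–sand.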

[2] = tested on: corn (Zea mays); assay: Test A pre-/postemergence plant response
In short: as §1

[3] = tested on: bermudagrass (Cynodon dactylon); assay: Test B pre-/postemergence plant response; settings: for Bermudagrass plant response rating: 8 g ai/ha, postemergence, 0-100 scale; for Plant response rating, Bermudagrass: Postemergence
Source text: (§2) Seeds of plant species selected from blackgrass (Alopecurus myosuroides), downy bromegrass (Bromus tectorum), green foxtail (Setaria viridis), Italian ryegrass (Lolium multiflorum), wheat (Triticum aestivum), wild oat (Avena fatua), catchweed bedstraw (Galium aparine), bermudagrass (Cynodon dactylon), surinam grass (Brachiaria decumbens), cocklebur (Xanthium strumarium), corn (Zea mays), large crabgrass (Digitaria sanguinalis), woolly cupgrass (Eriochloa villosa), giant foxtail (Setaria faberii), goosegrass (Eleusine indica), johnsongrass (Sorghum halepense), kochia (Kochia scoparia), lambsquarters (Chenopodium album), morningglory (Ipomoea coccinea), eastern black (E.B.) nightshade (Solanum ptycanthum), yellow nutsedge (Cyperus esculentus), pigweed (Amaranthus retroflexus), common ragweed (Ambrosia elation), Russian thistle (Salsola iberica), soybean (Glycine max), common (oilseed) sunflower (Helianthus annuus), and velvetleaf (Abutilon theophrasti) were planted and treated preemergence with test chemicals formulated in a non-phytotoxic solvent mixture which included a surfactant.
(§3) At the same time, plants selected from these crop and weed species and also winter barley (Hordeum vulgare), canarygrass (Phalaris minor), chickweed (Stellaria media) and windgrass (Apera spica-venti) were treated with postemergence applications of some of the test chemicals formulated in the same manner. Plants ranged in height from 2 to 18 cm (1- to 4-leaf stage) for postemergence treatments.
(§4) Plant species in the flooded paddy test consisted of rice (Oryza sativa), umbrella sedge (Cyperus difformis), ducksalad (Heteranthera limosa) and barnyardgrass (Echinochloa crus-galli) grown to the 2-leaf stage for testing. At time of treatment, test pots were flooded to 3 cm above the soil surface, treated by application of test compounds directly to the paddy water, and then maintained at that water depth for the duration of the test. Treated plants and controls were maintained in a greenhouse for 13 to 15 days, after which time all species were compared to controls and visually evaluated. Plant response ratings, summarized in Table B, are based on a scale of 0 to 100 where 0 is no effect and 100 is complete control. A dash (-) response means no test result.

[4] = tested on: johnsongrass (Sorghum halepense); assay: Test B pre-/postemergence plant response; settings: for Johnsongrass plant response rating: postemergence, 0-100 scale; for Plant response rating, Johnsongrass: Postemergence
Source text: as §2, §3, §4

[5] = tested on: velvetleaf (Abutilon theophrasti); assay: Test B pre-/postemergence plant response; settings: for Velvetleaf plant response rating: postemergence, 0-100 scale; for Plant response rating, Velvetleaf: Postemergence
Source text: as §2, §3, §4

[6] = tested on: Italian ryegrass (Lolium multiflorum); assay: Test B pre-/postemergence plant response; settings: for Ryegrass, Italian plant response rating: postemergence, 0-100 scale; for Plant response rating, Ryegrass, Italian: Postemergence
Source text: as §2, §3, §4

[7] = tested on: kochia (Kochia scoparia); assay: Test B pre-/postemergence plant response; settings: for Kochia plant response rating: postemergence, 0-100 scale; for Plant response rating, Kochia: Postemergence
Source text: as §2, §3, §4

[8] = tested on: soybean (Glycine max); assay: Test B pre-/postemergence plant response; settings: for Soybean plant response rating: postemergence, 0-100 scale; for Plant response rating, Soybean: Postemergence
Source text: as §2, §3, §4

[9] = tested on: wheat (Triticum aestivum); assay: Test B pre-/postemergence plant response; settings: for Wheat plant response rating: postemergence, 0-100 scale; for Plant response rating, Wheat: Postemergence
Source text: as §2, §3, §4

[10] = tested on: yellow nutsedge (Cyperus esculentus); assay: Test B pre-/postemergence plant response; settings: for Nutsedge, Yellow plant response rating: postemergence, 0-100 scale; for Plant response rating, Nutsedge, Yellow: Postemergence
Source text: as §2, §3, §4

[11] = Postemergence, 31 g ai/ha, 0 to 100 scale, 0 no effect, 100 complete control
[12] = Postemergence, 125 g ai/ha, 0 to 100 scale, 0 no effect, 100 complete control
[13] = Preemergence, 31 g ai/ha, 0 to 100 scale, 0 is no effect, 100 is complete control
[14] = Preemergence, 125 g ai/ha, 0 to 100 scale (0 no effect, 100 complete control)
[15] = 62 g ai/ha, scale 0 to 100, 0 no effect, 100 complete control

Structure (SMILES)	Plant response rating, Foxtail, Giant [1, 11]	Plant response rating, Foxtail, Giant [1, 12]	Plant response rating, Foxtail, Giant [1, 13]	Plant response rating, Foxtail, Giant [1, 14]	Plant response rating, Corn [2, 11]	Plant response rating, Corn [2, 12]	Plant response rating, Corn [2, 13]	Plant response rating, Corn [2, 14]	Bermudagrass plant response rating [3]	Plant response rating, Bermudagrass ([3]; 16 g ai/ha, scale 0 to 100)	Plant response rating, Bermudagrass ([3]; 31 g ai/ha, scale 0 to 100)	Plant response rating, Bermudagrass [3, 15]	Johnsongrass plant response rating ([4]; 8 g ai/ha)	Plant response rating, Johnsongrass ([4]; 31 g ai/ha, scale 0 to 100)	Plant response rating, Johnsongrass [4, 15]	Velvetleaf plant response rating ([5]; 8 g ai/ha)	Plant response rating, Velvetleaf ([5]; 31 g ai/ha, scale 0 to 100)	Plant response rating, Velvetleaf [5, 15]	Ryegrass, Italian plant response rating ([6]; 8 g ai/ha)	Plant response rating, Ryegrass, Italian ([6]; 31 g ai/ha, scale 0 to 100)	further results
Cc1nn(C)c(=O)c(-n2nc(-c3ccc(Cl)cc3)cc2Cl)c1O [Compound 59]	90	90	70	90	30	70	0	60	0	0	0	20	0	60	80	0	0	0	80	85	Plant response rating, Johnsongrass ([4]; 16 g ai/ha, scale 0 to 100): 0; Plant response rating, Velvetleaf ([5]; 16 g ai/ha, scale 0 to 100): 0; Plant response rating, Ryegrass, Italian ([6]; 16 g ai/ha, scale 0 to 100): 80; Plant response rating, Ryegrass, Italian [6, 15]: 85; Kochia plant response rating ([7]; 8 g ai/ha): 0; Plant response rating, Kochia ([7]; 16 g ai/ha, scale 0 to 100): 0; Plant response rating, Kochia ([7]; 31 g ai/ha, scale 0 to 100): 0; Plant response rating, Kochia [7, 15]: 0; Soybean plant response rating ([8]; 8 g ai/ha): 0; Plant response rating, Soybean ([8]; 16 g ai/ha, scale 0 to 100): 0; Plant response rating, Soybean ([8]; 31 g ai/ha, scale 0 to 100): 0; Plant response rating, Soybean [8, 15]: 0; Wheat plant response rating ([9]; 8 g ai/ha): 0; Plant response rating, Wheat ([9]; 16 g ai/ha, scale 0 to 100): 15; Plant response rating, Wheat ([9]; 31 g ai/ha, scale 0 to 100): 40; Plant response rating, Wheat [9, 15]: 50; Nutsedge, Yellow plant response rating ([10]; 8 g ai/ha): 0; Plant response rating, Nutsedge, Yellow ([10]; 16 g ai/ha, scale 0 to 100): 0; Plant response rating, Nutsedge, Yellow ([10]; 31 g ai/ha, scale 0 to 100): 0; Plant response rating, Nutsedge, Yellow [10, 15]: 0
CCc1cc(-c2ccc(Br)cc2)nn1-c1c(O)cnn(CC(F)(F)F)c1=O [Compound 73]	50	100	0	30	90	100	0	20	0	0	10	10	70	90	100	0	0	0	45	100	Johnsongrass plant response rating ([4]; 16 g ai/ha): 85; Velvetleaf plant response rating ([5]; 16 g ai/ha): 0; Ryegrass, Italian plant response rating ([6]; 16 g ai/ha): 70; Plant response rating, Ryegrass, Italian [6, 15]: 100; Kochia plant response rating ([7]; 8 g ai/ha): 0; Kochia plant response rating ([7]; 16 g ai/ha): 0; Plant response rating, Kochia ([7]; 31 g ai/ha, scale 0 to 100): 0; Plant response rating, Kochia [7, 15]: 0; Soybean plant response rating ([8]; 8 g ai/ha): 0; Soybean plant response rating ([8]; 16 g ai/ha): 0; Plant response rating, Soybean ([8]; 31 g ai/ha, scale 0 to 100): 10; Plant response rating, Soybean [8, 15]: 10; Wheat plant response rating ([9]; 8 g ai/ha): 5; Wheat plant response rating ([9]; 16 g ai/ha): 60; Plant response rating, Wheat ([9]; 31 g ai/ha, scale 0 to 100): 90; Plant response rating, Wheat [9, 15]: 95; Nutsedge, Yellow plant response rating ([10]; 8 g ai/ha): 0; Nutsedge, Yellow plant response rating ([10]; 16 g ai/ha): 0; Plant response rating, Nutsedge, Yellow ([10]; 31 g ai/ha, scale 0 to 100): 0; Plant response rating, Nutsedge, Yellow [10, 15]: 0
